Experimental data taken from patent US4826982A, “Quinolonecarboxylic acid derivatives” (Kyorin Pharmaceutical Co., Ltd., priority 1985, dated 1989).
≈ marks a conversion by molar mass, not a printed value.

Columns and labels:
[1] = tested on: gram-positive bacteria; settings: background art; cited from earlier work
[2] = tested on: gram-negative bacteria; settings: background art; CI-934 compared with Norfloxacin and Ciprofloxacin; cited from earlier work
[3] = tested on: F. varium KYA 8501; test: Antibacterial spectrum, MIC; type: cell-based; settings: Fusobacterium varium, KYA8501
[4] = tested on: Bacteroides fragilis GM 7000; test: Antibacterial spectrum, MIC; settings: GM7000
[5] = tested on: Pseudomonas aeruginosa V-1; test: Antibacterial spectrum, MIC; settings: V1
[6] = tested on: Propionibacterium acens 11828; test: Antibacterial spectrum, MIC; type: cell-based
[7] = tested on: Peptostreptococcus anaerobius KYA 27337; test: Antibacterial spectrum, MIC; type: cell-based; settings: KYA27337
[8] = tested on: P. aeruginosa IFO 12689; test: microbe, parasite or virus in culture; settings: Pseudomonas aeruginosa, IFO12689
[9] = tested on: Pst. micros UPI 5464-1; test: Antibacterial spectrum, MIC; settings: Parvimonas micra, UPI54641
[10] = tested on: Eubacterium lentum GAI 5242; test: microbe, parasite or virus in culture; settings: Eggerthella lenta, GAI5242
[11] = tested on: Clostridium perfringens KYA 13123; test: microbe, parasite or virus in culture; settings: KYA13123
[12] = tested on: S. pyogenes IID 692; test: microbe, parasite or virus in culture; settings: Streptococcus pyogenes, IID692
[13] = tested on: Morganella morganii IID 602; test: Antibacterial spectrum, MIC; type: cell-based; settings: IID602
[14] = tested on: B. thetaiotaomicron (0661); test: Antibacterial spectrum, MIC; type: cell-based; settings: Bacteroides thetaiotaomicron
[15] = tested on: Bacillus subtilis PCI 219; test: Antibacterial spectrum, MIC by method recommended by Japan Society of Chemotherapy; type: cell-based; settings: PCI219, 10^6 cells/ml, Gram +, standard strain
From the text: (§1) In vitro antibacterial activity (standard strains)
(§2) Organism (10^6 cells/ml)

[16] = tested on: Yersinia enterocolitica IID 981; test: microbe, parasite or virus in culture; type: cell-based; settings: IID981
[17] = tested on: Veillonella parvula KYA 10790; test: Antibacterial spectrum, MIC; settings: KYA10790
[18] = tested on: C. ramosum; test: Antibacterial spectrum, MIC; type: cell-based; settings: Thomasclavelia ramosa
[19] = tested on: Staphylococcus aureus 209 P; test: Antibacterial spectrum, MIC; type: cell-based; settings: 10^6 cells/ml, Gram +, standard strain
From the text: as §1, §2

[20] = tested on: P. mirabilis IID 994; test: Antibacterial spectrum, MIC; type: cell-based; settings: Proteus mirabilis, IID994; 10^6 cells/ml; Gram -; standard strain
From the text: as §1, §2

[21] = tested on: S. epidermidis IID 866; test: Antibacterial spectrum, MIC; type: cell-based; settings: Staphylococcus epidermidis, IID866; 10^6 cells/ml; Gram +; standard strain
From the text: as §1, §2

[22] = tested on: Acinetobacter anitratus IID 876; test: Antibacterial spectrum, MIC; type: cell-based; settings: Acinetobacter calcoaceticus, IID876; 10^6 cells/ml; Gram -; standard strain
From the text: as §1, §2

[23] = tested on: B. distasonis 8503; test: Antibacterial spectrum, MIC; type: cell-based; settings: Parabacteroides distasonis, 10^6 cells/ml, Gram -, standard strain
From the text: as §1, §2

[24] = tested on: K. pneumoniae 1-220S; test: Antibacterial spectrum, MIC; type: cell-based; settings: Klebsiella pneumoniae, 1220S; 10^6 cells/ml; Gram -; standard strain
From the text: as §1, §2

[25] = tested on: Serratia marcescens IID 618; test: Antibacterial spectrum, MIC; type: cell-based; settings: IID618, 10^6 cells/ml, Gram -, standard strain
From the text: as §1, §2

[26] = tested on: Fusobacterium necrophorum S-45; test: Antibacterial spectrum, MIC; type: cell-based; settings: S45, 10^6 cells/ml, Gram -, standard strain
From the text: as §1, §2

[27] = tested on: B. fragilis 25285; test: Antibacterial spectrum, MIC; type: cell-based; settings: Bacteroides fragilis, 10^6 cells/ml, Gram -, standard strain
From the text: as §1, §2

[28] = tested on: Shigella sonnei IID 969; test: Antibacterial spectrum, MIC; type: cell-based; settings: IID969, 10^6 cells/ml, Gram -, standard strain
From the text: as §1, §2

[29] = tested on: E. faecalis IID 682; test: Antibacterial spectrum, MIC; type: cell-based; settings: Enterococcus faecalis, IID682; 10^6 cells/ml; Gram +; standard strain
From the text: as §1, §2

[30] = tested on: Citrobacter freundii IID 976; test: Antibacterial spectrum, MIC; type: cell-based; settings: IID976, 10^6 cells/ml, Gram -, standard strain
From the text: as §1, §2

[31] = tested on: Alcaligenes faecalis 0114002; test: Antibacterial spectrum, MIC; type: cell-based; settings: 10^6 cells/ml, Gram -, standard strain
From the text: as §1, §2

[32] = tested on: Klebsiella pneumoniae KY(GN)6445; test: Antibacterial spectrum, MIC; type: cell-based; settings: 10^6 cells/ml, Gram -, standard strain
From the text: as §1, §2

[33] = tested on: S. pneumoniae IID 552; test: Antibacterial spectrum, MIC; type: cell-based; settings: Streptococcus pneumoniae, IID552; 10^6 cells/ml; Gram +; standard strain
From the text: as §1, §2

[34] = tested on: B. fragilis 0558; test: Antibacterial spectrum, MIC; type: cell-based; settings: Bacteroides fragilis, 10^6 cells/ml, Gram -, standard strain
From the text: as §1, §2

[35] = tested on: Salmonella enteritidis IID 604; test: Antibacterial spectrum, MIC; type: cell-based; settings: Salmonella enterica; 10^6 cells/ml; Gram -; standard strain
From the text: as §1, §2

[36] = tested on: S. aureus IID 670 (Terajima); test: Antibacterial spectrum, MIC; type: cell-based; settings: Staphylococcus aureus, IID670; 10^6 cells/ml; Gram +; standard strain
From the text: as §1, §2

[37] = tested on: Streptococcus pyogenes (S-8); test: Antibacterial spectrum, MIC; type: cell-based; settings: 10^6 cells/ml, Gram +, standard strain
From the text: as §1, §2

[38] = tested on: E. coli ATCC l0536; test: Antibacterial spectrum, MIC; type: cell-based; settings: Escherichia coli, ATCCL0536
From the text: as §1, §2

[39] = tested on: Proteus vulgaris IFO 3167; test: Antibacterial spectrum, MIC; type: cell-based; settings: IFO3167, 10^6 cells/ml, Gram -, standard strain
From the text: as §1, §2

[40] = tested on: Enterobacter cloacae IID 977; test: Antibacterial spectrum, MIC; type: cell-based; settings: IID977, 10^6 cells/ml, Gram -, standard strain
From the text: as §1, §2

[41] = tested on: Escherichia coli NIHJ JC-2; test: Antibacterial spectrum, MIC; type: cell-based; settings: NIHJJC2, 10^6 cells/ml, Gram -, standard strain
From the text: as §1, §2

[42] = tested on: Peptococcus magnus KY 017; test: microbe, parasite or virus in culture; settings: Finegoldia magna, KY017

Question: Which results are given for CCNCC1CCN(c2c(F)cc3c(=O)c(C(=O)O)cn(CC)c3c2F)C1 (centres unmarked) [CI-934, 1-ethyl-7-[3-[(ethylamino)methyl]-1-pyrrolidinyl]-6,8-difluoro-1,4-dihydro-4-oxo-3-quinolinecarboxylic acid]?
Answer: activity against gram-positive bacteria [1]: relatively strong activity against gram-positive bacteria; activity against gram-negative bacteria [2]: weaker activity against gram-negative bacteria than such known compounds as Norfloxacin and Ciprofloxacin

Question: Which results are given for O=C(O)c1cn(C2CC2)c2c(Br)c(N3CCNCC3)c(F)cc2c1=O [Exp. 17, 8-Bromo-1-cyclopropyl-6-fluoro-1,4-dihydro-4-oxo-7-(1-piperazinyl)-3-quinolinecarboxylic acid]?
Answer: MIC [3]: 3.13 µg/mL (≈ 7.63 µM); MIC [4]: 0.78 µg/mL (≈ 1.9 µM); MIC [5]: 0.39 µg/mL (≈ 0.951 µM); MIC [6]: 6.25 µg/mL (≈ 15.2 µM); MIC [7]: 1.56 µg/mL (≈ 3.8 µM); MIC [8]: 0.78 µg/mL (≈ 1.9 µM); MIC [9]: 0.39 µg/mL (≈ 0.951 µM); MIC [10]: 0.39 µg/mL (≈ 0.951 µM); MIC [11]: 0.78 µg/mL (≈ 1.9 µM); MIC [12]: 0.78 µg/mL (≈ 1.9 µM); MIC [13]: 0.05 µg/mL (≈ 0.122 µM); MIC [14]: 1.56 µg/mL (≈ 3.8 µM); MIC [15]: 0.05 µg/mL (≈ 0.122 µM); MIC [16]: 0.05 µg/mL (≈ 0.122 µM); MIC [17]: 0.39 µg/mL (≈ 0.951 µM); MIC [18]: 6.25 µg/mL (≈ 15.2 µM); MIC [19]: 0.1 µg/mL (≈ 0.244 µM); MIC [20]: 0.025 µg/mL (≈ 0.0609 µM); MIC [21]: 0.2 µg/mL (≈ 0.488 µM); MIC [22]: 0.1 µg/mL (≈ 0.244 µM); MIC [23]: 1.56 µg/mL (≈ 3.8 µM); MIC [24]: 0.05 µg/mL (≈ 0.122 µM); MIC [25]: 0.05 µg/mL (≈ 0.122 µM); MIC [26]: 0.78 µg/mL (≈ 1.9 µM); MIC [27]: 0.78 µg/mL (≈ 1.9 µM); MIC [28]: 0.025 µg/mL (≈ 0.0609 µM); MIC [29]: 0.39 µg/mL (≈ 0.951 µM); MIC [30]: 0.025 µg/mL (≈ 0.0609 µM); MIC [31]: 0.2 µg/mL (≈ 0.488 µM); MIC [32]: 0.025 µg/mL (≈ 0.0609 µM); MIC [33]: 0.78 µg/mL (≈ 1.9 µM); MIC [34]: 0.78 µg/mL (≈ 1.9 µM); MIC [35]: 0.025 µg/mL (≈ 0.0609 µM); MIC [36]: 0.2 µg/mL (≈ 0.488 µM); MIC [37]: 0.39 µg/mL (≈ 0.951 µM); MIC [38]: 0.025 µg/mL (≈ 0.0609 µM); MIC [39]: 0.025 µg/mL (≈ 0.0609 µM); MIC [40]: 0.05 µg/mL (≈ 0.122 µM); MIC [41]: 0.0125 µg/mL (≈ 0.0305 µM); MIC [42]: 0.39 µg/mL (≈ 0.951 µM)

Question: With CCn1cc(C(=O)O)c(=O)c2cc(F)c(N3CCNCC3)cc21 [Norfloxacin] as the compound, how does the “activity against gram-positive bacteria” value [1] read?
Answer: The value was “effective”.

Question: What about the “activity against gram-negative bacteria” value [2] of the same compound?
Answer: The value was “effective”.
